Experimental data from ChEMBL document CHEMBL1133589, “N-3-substituted imidazoquinazolinones: potent and selective PDE5 inhibitors as potential agents for treatment of erectile dysfunction” (J Med Chem, 2000).

Tests used:
[1] = target: cGMP-specific 3',5'-cyclic phosphodiesterase (Homo sapiens, UniProt O76074); assay: Inhibition of phosphodiesterase type 5 (PDE5) of human platelets
[2] = Relative inhibition of bovine heart PDE1 and PDE5 of human platelets
[3] = Relative inhibition of PDE2 of rat kidney and PDE5 of human platelets
[4] = Relative ihibition of bovine retina PDE6 and PDE5 of human platelets
[5] = Relative inhibition of PDE4 of rat kidney and PDE5 of human platelets

SMILES | IC50 [1] [nM] | IC50 ratio [2] | IC50 ratio [3] | IC50 ratio [4] | IC50 ratio [5]
CCCOc1ccccc1-c1nc(O)c2cc3[nH]cnc3cc2n1 | 44 | 200 | 360 | 1 | 100
CCCOc1ccc(S(=O)(=O)N2CCN(C)CC2)cc1-c1nc(O)c2cc3c(cc2n1)ncn3Cc1ccccc1 | 5.3 | 3400 | > 10000 | 20 | 600
CCCOc1ccc(S(=O)(=O)N2CCN(C)CC2)cc1-c1nc(O)c2cc3[nH]cnc3cc2n1 | – | 90 | 1300 | 2 | 1600
CCCOc1ccc(C(N)=O)cc1-c1nc(O)c2cc3c(cc2n1)ncn3Cc1ccc(F)cc1 | 0.48 | > 100000 | > 100000 | 60 | 4200
